Data as given in paper PMC11432330, “Novel Drug-like HsrA Inhibitors Exhibit Potent Narrow-Spectrum Antimicrobial Activities against Helicobacter pylori” (International Journal of Molecular Sciences, 2024).

Target: C. jejuni response regulator CosR (Campylobacter jejuni, UniProt Q0PBF4)
Assay: EMSA: inhibition of in vitro DNA binding activity of CosR to promoter PsodB
Assay type: biochemical
Details: 700 nM CosR, ligand 0.1-2 mM
Protocol: The DNA binding activities of recombinant HsrA and CosR were assessed in vitro by electrophoretic mobility shift assays (EMSAs). A 300-bp promoter region of the H. pylori 26695 operon porGDAB was used as the target sequence of HsrA in all EMSA experiments. Likewise, a 420-bp sequence of the C. jejuni sodB promoter (ATCC 33560) was used as the target DNA of CosR [90]. The oligonucleotides used for the synthesis of these promoter regions are described in Supplementary Table S4. Response regulators HsrA (6 μM) or CosR (700 nM) were mixed with 120 ng of their target promoters in a reaction buffer of 10 mM bis-Tris (pH 7.5), 40 mM KCl, 100 mg/L BSA, 1 mM DTT, and 5% glycerol. For the in vitro inhibition analyses, mixtures of target DNA and response regulator were exposed to 2, 1, 0.5, and 0.1 mM of each compound of interest, incubated at room temperature for 20 min, and then separated on a 6% non-denaturing electrophoresis. DMSO instead of inhibitors was included as a vehicle control, while an internal sequence of the Anabaena sp. pkn22 gene was used as the non-specific competitor in all assays. For DNA-protein binding visualization, gels were stained with the SYBR Safe DNA gel stain (Invitrogen) and analyzed with a Gel Doc 2000 Image Analyzer (Bio-Rad).

Chain of C. jejuni response regulator CosR (Q0PBF4 entry or part of it): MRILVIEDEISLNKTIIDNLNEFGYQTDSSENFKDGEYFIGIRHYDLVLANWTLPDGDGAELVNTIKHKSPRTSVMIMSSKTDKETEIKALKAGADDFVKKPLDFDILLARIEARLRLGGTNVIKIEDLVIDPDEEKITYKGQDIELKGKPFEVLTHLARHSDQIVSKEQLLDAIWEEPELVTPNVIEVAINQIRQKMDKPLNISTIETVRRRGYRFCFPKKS

Compound: NC(=NOC(=O)Nc1ccc(Cl)cc1)c1csc([N+](=O)[O-])c1 [Ligand V, N′-{[(4-chloroanilino)carbonyl]}oxy-5-nitrothiophene-3-carboximidamide]
- Inhibition of in vitro DNA binding activity of CosR (EMSA): noticeable inhibition
